Data reported in patent publication US20230295152A1 (SENDA BIOSCIENCES, INC., priority 2019, published 2023).
Read-outs that look alike come from different tables or passages of the source.

Test: Caco-2 Permeability Assay
Assay type: in vitro ADME
Conditions: human
Procedure: Preparation of Caco-2 Cells: 50 μL and 25 mL of cell culture medium were added to each well of the Transwell insert and reservoir, respectively. The HTS transwell plates were incubated at 37° C., 5% CO2 for 1 hour before cell seeding. Caco-2 cells were diluted to 6.86×10^5 cells/mL with culture medium and 50 μL of cell suspension were dispensed into the filter well of the 96-well HTS Transwell plate. Cells were cultivated for 14-18 days in a cell culture incubator at 37° C., 5% CO2, 95% relative humidity. Cell culture medium was replaced every other day, beginning no later than 24 hours after initial plating.
Assessment of Cell Monolayer Integrity: Medium was removed from the reservoir and each Transwell insert and replaced with prewarmed fresh culture medium. Transepithelial electrical resistance (TEER) across the monolayer was measured using Millicell Epithelial Volt-Ohm measuring system (Millipore, USA). The Plate was returned to the incubator once the measurement was done. The TEER value was calculated according to the following equation:
TEER measurement(ohms)×Area of membrane(cm^2)=TEER value(ohm·cm^2)
TEER value should be greater than 230 ohm·cm^2, which indicates the well-qualified Caco-2 monolayer.
Preparation of Solutions: 2 mM stock solutions in DMSO of control compounds were prepared and diluted with HBSS (10 mM HEPES, pH 7.4) to get 10 μM working solution. 0.2 mM stock solutions of test compounds in DMSO were prepared and diluted with HBSS (10 mM HEPES, pH 7.4 with 0.5% BSA) to get 1 μM working solution. Metoprolol, erythromycin and cimetidine were used as control compounds.
Performing the Drug Transport Assay: The Caco-2 plate was removed from the incubator. The monolayer was washed twice with pre-warmed HBSS (10 mM HEPES, pH 7.4). The plate was incubated at 37° C. for 30 minutes. To determine the rate of drug transport in the apical to basolateral direction, 125 μL of the working solution was added to the Transwell insert (apical compartment). A 50 μL sample was transferred immediately from the apical compartment to 200 μL of acetonitrile containing IS (100 nM alprazolam, 200 nM Caffeine and 100 nM tolbutamide) in a new 96-well plate as the initial donor sample (A-B) and it was vortexed at 1000 rpm for 10 minutes. The wells in the receiver plate (basolateral compartment) were filled with 235 μL of transport buffer. To determine the rate of drug transport in the basolateral to apical direction, 285 μL of the working solution were added to the receiver plate wells (basolateral compartment). A 50 μL sample was transferred immediately from the basolateral compartment to 200 μL of acetonitrile containing IS (100 nM alprazolam, 200 nM Caffeine and 100 nM tolbutamide) in a new 96-well plate as the initial donor sample (B-A) and it was vortexed at 1000 rpm for 10 minutes. The Transwell insert (apical compartment) was filled with 75 μL of transport buffer. The apical to basolateral direction and the basolateral to apical direction need to be done at the same time. The plates were incubated at 37° C. for 2 hours. At the end of the incubation, 50 μL samples from donor sides (apical compartment for Ap→B1 flux, and basolateral compartment for B1→Ap) and receiver sides (basolateral compartment for Ap→B1 flux, and apical compartment for B1→Ap) were transferred to wells of a new 96-well plate, followed by the addition of 4 volume of acetonitrile containing IS (100 nM alprazolam, 200 nM Caffeine and 100 nM tolbutamide). Samples were vortexed for 10 minutes, 50 μL samples were transferred to wells of a new 96-well plate, followed by the addition of 50 μL Hepes and 200 μL IS. A11 samples were vortexed for 10 minutes, and then centrifuged at 3,220 g for 40 minutes. An aliquot of 150 μL of the supernatant was mixed with an appropriate volume of ultra-pure water before LC-MS/MS analysis.
Data analysis: All calculations were carried out using Microsoft Excel. Peak areas were determined from extracted ion chromatograms. […]

[1] = Caco-2, pH 7.4, apical to basolateral, read-out: Caco2 Papp (AB)
[2] = Caco-2, pH 7.4, basolateral to apical, read-out: Caco2 Papp (BA)
[3] = Caco-2, pH 7.4, +0.5% BSA, read-out: Caco 2 apparent permeability Papp (A−B)
[4] = Caco-2, pH 7.4, +0.5% BSA, read-out: Caco 2 apparent permeability Papp (B−A)

SMILES | Papp A→B at 2 h, 1 μM [1] [×10⁻⁶ cm/s] | Papp B→A at 2 h, 1 μM [2] [×10⁻⁶ cm/s] | Papp A→B at 2 h, 1 μM [3] [×10⁻⁶ cm/s] | Papp B→A at 2 h, 1 μM [4] [×10⁻⁶ cm/s]
C[C@@H](CO)n1cnc2c(-c3cccnc3)nc(-c3ccc(C4CC4)nc3)cc2c1=O [Compound 74] | 2 to 10 | > 10 |  | 
C[C@H](n1cnc2c(-c3cnn(C)c3)nc(-c3ccc(Cl)cc3)cc2c1=O)C(C)(C)O [Compound 30] | 2 to 10 | < 2 |  | 
CC(C)(O)Cn1cnc2c(-c3cccnc3)nc(-c3ccc(C(F)(F)F)cc3)cc2c1=O [Compound 16] | 2 to 10 | 2 to 10 |  | 
Cn1cc(-c2nc(-c3ccc(Cl)cc3)cc3c(=O)n(CC(C)(C)O)cnc23)cn1 [Compound 21] | 2 to 10 | < 2 |  | 
C[C@@H](CO)n1cnc2c(-n3ccnc3)nc(-c3ccc(OC(F)(F)F)cc3)cc2c1=O [Compound 44, (S)-3-(1-hydroxypropan-2-yl)-8-(1H-imidazol-1-yl)-6-(4-(trifluoromethoxy)-phenyl)pyrido[3,4-d]pyrimidin-4(3H)-one] | 2 to 10 | 2 to 10 |  | 
C[C@@H](CO)n1cnc2c(-c3cncc(F)c3)nc(-c3ccc(OC(F)(F)F)cc3)cc2c1=O [Compound 1, (S)-8-(5-fluoropyridin-3-yl)-3-(1-hydroxypropan-2-yl)-6-(4-(trifluoromethoxy)phenyl)pyrido[3,4-d]pyrimidin-4(3H)-one] | 2 to 10 | < 2 |  | 
C[C@@H](CO)n1cnc2c(-c3cccnc3)nc(-c3ccc(C(F)(F)F)cn3)cc2c1=O [Compound 46, (S)-3-(1-hydroxypropan-2-yl)-8-(pyridin-3-yl)-6-(5-(trifluoromethyl)pyridin-2-yl)pyrido[3,4-d]pyrimidin-4(3H)-one] | > 10 | > 10 | 12.6 | 16.4
C[C@@H](CO)n1cnc2c(-c3cccc(F)c3)nc(-c3ccc(C(F)(F)F)nc3)cc2c1=O [Compound 8] | 2 to 10 | 2 to 10 |  | 
Cn1cc(-c2nc(-c3ccc(C(F)(F)F)nc3)cc3c(=O)n(CC(C)(C)O)cnc23)cn1 [Compound 60] | > 10 | 2 to 10 |  | 
CC(C)(O)Cn1cnc2c(-c3cccnc3)nc(-c3ccc(C(F)(F)F)nc3)cc2c1=O [Compound 9] | 2 to 10 | > 10 | 9.6 | 25
C[C@@H](CO)n1cnc2c(-c3cccnc3)nc(-c3ccc(OC(F)(F)F)cc3)cc2c1=O [Compound 22] | 2 to 10 | 2 to 10 |  | 
C[C@@H](CO)n1cnc2c(-c3cccnc3)nc(-c3ccc(C(F)(F)F)nc3)cc2c1=O [Compound 12] | 2 to 10 | > 10 |  | 
C[C@@H](CO)n1cnc2c(-c3cccc(F)c3)nc(-c3ccc(Cl)cc3)cc2c1=O [Compound 7] | < 2 | < 2 |  | 
C[C@H](n1cnc2c(-c3cccnc3)nc(-c3cccnc3)cc2c1=O)C(C)(C)O [Compound 34] | 2 to 10 | > 10 |  | 
Cn1cc(-c2nc(-c3ccc(C(F)(F)F)cn3)cc3c(=O)n(CC(C)(C)O)cnc23)cn1 [Compound 103, 3-(2-hydroxy-2-methylpropyl)-8-(1-methyl-1H-pyrazol-4-yl)-6-(5-(trifluoromethyl)pyridin-2-yl)pyrido[3,4-d]pyrimidin-4(3H)-one] | 2 to 10 | < 2 |  | 

Now from value to compound, other results behind:

Papp A→B at 2 h, 1 μM [1] [×10⁻⁶ cm/s] | Papp B→A at 2 h, 1 μM [2] [×10⁻⁶ cm/s] | SMILES | Papp A→B at 2 h, 1 μM [3] [×10⁻⁶ cm/s] | Papp B→A at 2 h, 1 μM [4] [×10⁻⁶ cm/s]
2 to 10 | 2 to 10 | CC(C)(O)Cn1cnc2c(-c3cccnc3)nc(-c3ccc(Cl)cc3)cc2c1=O [Compound 18] |  | 
2 to 10 | < 2 | C[C@@H](n1cnc2c(-c3cnn(C)c3)nc(-c3ccc(Cl)cc3)cc2c1=O)C(C)(C)O [Compound 31] |  | 
< 2 | < 2 | C[C@@H](CO)n1cnc2c(-c3cccc(F)c3)nc(-c3ccc(C(F)(F)F)cn3)cc2c1=O [Compound 47, (S)-8-(3-fluorophenyl)-3-(1-hydroxypropan-2-yl)-6-(5-(trifluoromethyl)pyridin-2-yl)pyrido[3,4-d]pyrimidin-4(3H)-one] |  | 
2 to 10 | 2 to 10 | C[C@@H](n1cnc2c(-c3cccnc3)nc(-c3ccc(Cl)cc3)cc2c1=O)C(C)(C)O [Compound 33] |  | 
> 10 | 2 to 10 | CC(C)(O)Cn1cnc2c(-c3cccnc3)nc(-c3ccc(C(F)(F)F)cn3)cc2c1=O [Compound 105] |  | 
> 10 | 2 to 10 | Cc1ccc(-c2cc3c(=O)n([C@@H](C)CO)cnc3c(-c3cccnc3)n2)cc1 [Compound 17, (S)-3-(1-hydroxypropan-2-yl)-8-(pyridin-3-yl)-6-(p-tolyl)pyrido[3,4-d]pyrimidin-4(3H)-one] |  | 
2 to 10 | < 2 | C[C@@H](CO)n1cnc2c(-c3cnn(C)c3)nc(-c3ccc(Cl)cc3)cc2c1=O [Compound 27] |  | 
